From US10028949B2, “Parenteral formulations of lipophilic pharmaceutical agents and methods for preparing and using the same” (priority 2011, dated 2018)
Read-outs that look alike come from different tables or passages of the source.

Assays:
[1] = in vivo; cited from earlier work
[2] = system: human myeloid leukemia cell lines KBM-3 and KBM-7/B5, as well as the OCI-AML3; test: In vitro cytotoxicity of busulfan, MTT assay; assay type: cell-based; conditions: compared with Bu dissolved in DMSO (positive control)
Experimental: The cytotoxic potential of the selected preferred solvent systems with and without Bu was determined against the human myeloid leukemia cell lines KBM-3 and KBM-7/B5, as well as the OCI-AML3 (Andersson et al., 1993; Andersson et al., 1987; Andersson et al., 1995; Wang et al., 1991). Briefly, continuously growing cells were exposed to drug, and then pelleted, after which they were resuspended in complete cell culture medium at 2×10^5/mL and aliquoted (20,000/well) in 96-well plates, incubated at 37° C. for 4 days, and analyzed by the MTT assay (Mosmann, 1983). Graphical analyses including calculations of IC50 and charting of survival were done using Prism 4 (GraphPad Software, Inc., San Diego, Calif.). Cells exposed in parallel to solvent system and medium alone served as negative controls, and cells exposed to […] (final concentration 0.08% v/v) served as a positive control for a comparison of cytotoxic action with the DMA-Bu formulation.

[3] = cited from earlier work
physchem = conditions: thermodynamic from solid
erythrocytes = test: Hemolysis studies in vitro; assay type: cell-based; conditions: drug concentrations of 100 μg/mL or more
From the text: The hemolytic potential of the final use-formulation should also be minimal, since the terminal use formulation/infusate contain Bu and PEG as the only significant solutes to be infused, i.e. this is basically D5W with a moderate amount of PEG (40%, v/v) as its main additive. The procedure of Parthasarathy et al. was used to examine the hemolytic potential of a few selected formulations, and the LD50 values of the most optimal formulation was constructed as previously described (Parthasarathy et al., 1994). Briefly, heparinized blood was mixed with an equal volume of Alsever's solution (Alsever and Ainslie, 1941). This mixture was washed twice in PBS, and a 10% (volume per volume, v/v) erythrocyte/PBS solution was then prepared and mixed with increasing amounts of PEG (essentially the VE-acetone/PEG prototype vehicle) with or without addition of D5W and with or without Bu. The resulting mixtures were incubated for 4 hours at 37° C. […] The release of hemoglobin in the supernatant (i.e., hemolysis) was determined spectrophotometrically at a wavelength of 550 nm. Maximum lysis was measured against a reference erythrocyte solution that had been lysed by hypotonic shock. The hemolytic potential of the vehicle and the complete final use-formulation (Bu/VE-acetone/PEG/D5W) was evaluated as described (Parthasarathy et al., 1984). […]

[4] = Parenteral busulfan pharmacology in mice
Experimental: Swiss Webster mice with a body weight of 25-30 g were used for the in vivo pharmacology experiments (Harlan-Sprague-Dawley, Houston, Tex.). The animals were allowed a minimum of 3-4 days after arrival to acclimatize to the new environment and allowed free access to commercial feed and hyperchlorinated, reverse-osmosis purified water prior to and during the experimentation period. The animal-housing facilities meet the requirements of the USDA, NIH, and DHHS.
Busulfan at a dose of 10 mg/kg BW was used as an appropriate and representative single dose that could be administered as a slow IV bolus injection over 3-4 min.
The Bu was formulated in the prototype VE-acetone/PEG vehicle to a stock concentration of about 10 mg/mL and then diluted with D5W to 1 mg/mL and 2 mg/mL (in repeated experiments) so the total dose of 10 mg/kg could be injected in a volume of about 250 μL and 125 μL, respectively, in a tail vein. The Bu concentrations of the final use-formulation were confirmed by HPLC prior to administration.
No anticonvulsant premedication was used in the animals in these experiments to avoid the possible induction of microsomal liver enzymes that could modify Bu metabolism. For the same reason the animals were unanesthetized during the drug injection, only physically restrained.
Blood samples (0.5-1.0 mL) were procured through cardiac puncture under Isoflurane-induced general anesthesia. These samples were drawn in preheparinized tubes at selected time points prior to the drug infusion (“blank”), and from 5 min to 4 hours after drug injection for determination of Bu concentrations. The blood was centrifuged at 1,000×g for 10 min, and plasma was removed and stored at −80° C. until extracted and assayed by HPLC.

CS(=O)(=O)OCCCCOS(C)(=O)=O [Busulfan, 1,4-butanediol dimethanesulfonate]
terminal half-life in blood [1]: 2 to 4 h | cytotoxic activity [2]: retained full cytotoxic activity | Solubility ([3]; Solvent: Acetone, in literature): ~25000 µg/mL | Solubility (mg/mL) ([3]; Solvent: Water (The Merck Index)): Negligible (The Merck Index) | solubility at 60 minutes (physchem; aqueous buffer, Solubility (mg/mL), Solvent: HCl 6 N, room temperature): 700 µg/mL | solubility at 60 minutes (physchem; aqueous with cosolvent or surfactant or cyclodextrin, Solubility (mg/mL), Solvent: PEG:water 1:1, room temperature): 250 µg/mL | solubility at 60 minutes (physchem; aqueous with cosolvent or surfactant or cyclodextrin, Solubility (mg/mL), Solvent: PEG:water 1:2, room temperature): 190 µg/mL | Solubility (physchem; organic solvent or mixture): 16400 µg/mL | solubility at 60 minutes (physchem; organic solvent or mixture): ~16000 µg/mL | solubility at 60 minutes (physchem; organic solvent or mixture, Solubility (mg/mL), Solvent: Acetic acid, room temperature): 3800 µg/mL | solubility at 60 minutes (physchem; organic solvent or mixture, Solubility (mg/mL), Solvent: Ethanol, room temperature): 300 µg/mL | solubility at 60 minutes (physchem; organic solvent or mixture, Solubility (mg/mL), Solvent: PEG (−400), room temperature): 200 µg/mL | solubility at 60 minutes (physchem; organic solvent or mixture, Solubility (mg/mL), Solvent: Propylene glycol, room temperature): 200 µg/mL | Bu-dependent lysis (erythrocytes): barely exceeded background levels | half-life ([4]; Swiss Webster, mouse, plasma, iv, 10 mg/kg): 2.5 to 3.5 h | tolerability of injections ([4]; mice, 10 mg/kg IV, acute 4-hour observation period): well tolerated | hemolysis in vivo (urine samples) ([4]; mice, 10 mg/kg, urine samples up to 4 hours): no sign of hemolysis | Bu plasma concentrations ([4]; mice, IV 10 mg/kg BW): for several hours remained in the cytotoxic range
